The supplement of paper PMC4862054

Assays:
BT-474 [1] = assay: normalised viability (% of control), CellTiter-Blue; higher = more viable cells (about 100 = DMSO control); conditions: 50 nM; incubation time: 72 h
Experimental: (§1)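 DSRT, CellTiter-Blue viability, 72 h incubation. Signal is normalised to DMSO and benzethonium chloride controls. Value is the normalised response at dose 3.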

BT-549 [2] = assay: as above; conditions: 50 nM; incubation time: 72 h
Experimental: as §1

CAL-120 [3] = assay: as above; conditions: 50 nM; incubation time: 72 h
Experimental: as §1

CAL-148 [4] = assay: as above; conditions: 5 nM; incubation time: 72 h
Experimental: as §1

CAL-51 [5] = assay: as above; conditions: 5 nM; incubation time: 72 h
Experimental: as §1

CAL-85-1 [6] = assay: as above; conditions: 5 nM; incubation time: 72 h
Experimental: as §1

DU-4475 [7] = assay: as above; conditions: 5 nM; incubation time: 72 h
Experimental: as §1

HCC1143 [8] = assay: as above; conditions: 50 nM; incubation time: 72 h
Experimental: as §1

HCC1599 [9] = assay: as above; conditions: 50 nM; incubation time: 72 h
Experimental: as §1

HCC1937 [10] = assay: as above; conditions: 50 nM; incubation time: 72 h
Experimental: as §1

HDQ-P1 [11] = assay: as above; conditions: 5 nM; incubation time: 72 h
Experimental: as §1

Hs578T [12] = assay: as above; conditions: 50 nM; incubation time: 72 h
Experimental: as §1

MDA-MB-231 [13] = assay: as above; conditions: 50 nM; incubation time: 72 h
Experimental: as §1

MDA-MB-436 [14] = assay: as above; conditions: 50 nM; incubation time: 72 h
Experimental: as §1

MDA-MB-453 [15] = assay: as above; conditions: 5 nM; incubation time: 72 h
Experimental: as §1

MDA-MB-468 [16] = assay: as above; conditions: 50 nM; incubation time: 72 h
Experimental: as §1

MFM-223 [17] = assay: as above; conditions: 50 nM; incubation time: 72 h
Experimental: as §1

SK-BR-3 [18] = assay: as above; conditions: 50 nM; incubation time: 72 h
Experimental: as §1

BT-474 [19] = assay: normalised viability (% of control), CellTiter-Blue; higher = more viable cells (about 100 = DMSO control); conditions: incubation time: 72 h
Method in brief: (§2)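 The reported quantity is normalised viability at a single listed concentration of the series. Compound in 5 µl medium was pre-dispensed into 384-well plates and 20 µl of breast cancer cell suspension was added for 72 h. A 2 h, 37 °C CellTiter-Blue step (2.5 µl) preceded fluorescence reading at 560/590 nm, and plates were normalised to vehicle (100) and a positive kill control (0).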

BT-549 [20] = assay: as above; conditions: incubation time: 72 h
Method in brief: as §2

CAL-120 [21] = assay: as above; conditions: incubation time: 72 h
Method in brief: as §2

CAL-148 [22] = assay: as above; conditions: incubation time: 72 h
Method in brief: as §2

CAL-51 [23] = assay: as above; conditions: incubation time: 72 h
Method in brief: as §2

CAL-85-1 [24] = assay: as above; conditions: incubation time: 72 h
Method in brief: as §2

DU-4475 [25] = assay: as above; conditions: incubation time: 72 h
Method in brief: as §2

HCC1143 [26] = assay: as above; conditions: incubation time: 72 h
Method in brief: as §2

HCC1599 [27] = assay: as above; conditions: incubation time: 72 h
Method in brief: as §2

HCC1937 [28] = assay: as above; conditions: incubation time: 72 h
Method in brief: as §2

HDQ-P1 [29] = assay: as above; conditions: incubation time: 72 h
Method in brief: as §2

Hs578T [30] = assay: as above; conditions: incubation time: 72 h
Method in brief: as §2

MDA-MB-231 [31] = assay: as above; conditions: incubation time: 72 h
Method in brief: as §2

MDA-MB-436 [32] = assay: as above; conditions: incubation time: 72 h
Method in brief: as §2

MDA-MB-453 [33] = assay: as above; conditions: incubation time: 72 h
Method in brief: as §2

MDA-MB-468 [34] = assay: as above; conditions: incubation time: 72 h
Method in brief: as §2

MFM-223 [35] = assay: as above; conditions: incubation time: 72 h
Method in brief: as §2

SK-BR-3 [36] = assay: as above; conditions: incubation time: 72 h
Method in brief: as §2

BT-474 [37] = assay: normalised viability (% of control), CellTiter-Blue; higher = more viable cells (100 = DMSO, 0 = benzethonium chloride kill control); conditions: incubation time: 72 h
Experimental: (§3)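 DSRT, CellTiter-Blue viability, 72 h incubation. Signal is normalised to DMSO and benzethonium chloride controls. Value is the normalised response at dose 1.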

BT-549 [38] = assay: as above; conditions: incubation time: 72 h
Experimental: as §3

CAL-120 [39] = assay: as above; conditions: incubation time: 72 h
Experimental: as §3

CAL-148 [40] = assay: as above; conditions: incubation time: 72 h
Experimental: as §3

CAL-51 [41] = assay: as above; conditions: incubation time: 72 h
Experimental: as §3

CAL-85-1 [42] = assay: as above; conditions: incubation time: 72 h
Experimental: as §3

DU-4475 [43] = assay: as above; conditions: incubation time: 72 h
Experimental: as §3

HCC1143 [44] = assay: as above; conditions: incubation time: 72 h
Experimental: as §3

HCC1599 [45] = assay: as above; conditions: incubation time: 72 h
Experimental: as §3

HCC1937 [46] = assay: as above; conditions: incubation time: 72 h
Experimental: as §3

HDQ-P1 [47] = assay: as above; conditions: incubation time: 72 h
Experimental: as §3

Hs578T [48] = assay: as above; conditions: incubation time: 72 h
Experimental: as §3

MDA-MB-231 [49] = assay: as above; conditions: incubation time: 72 h
Experimental: as §3

MDA-MB-436 [50] = assay: as above; conditions: incubation time: 72 h
Experimental: as §3

MDA-MB-453 [51] = assay: as above; conditions: incubation time: 72 h
Experimental: as §3

MDA-MB-468 [52] = assay: as above; conditions: incubation time: 72 h
Experimental: as §3

MFM-223 [53] = assay: as above; conditions: incubation time: 72 h
Experimental: as §3

SK-BR-3 [54] = assay: as above; conditions: incubation time: 72 h
Experimental: as §3

In the case of `CC[C@@]1(O)C(=O)OCc2c1cc1n(c2=O)Cc2cc3ccccc3nc2-1` [Camptothecin], the normalised viability (BT-474 [1]) is reported as 90.8%, the normalised viability (BT-549 [2]) is reported as 67.3% and the normalised viability (CAL-120 [3]) is reported as 65.5%. The normalised viability (CAL-148 [4]) was 70.3%, the normalised viability (CAL-51 [5]) was 99% and the normalised viability (CAL-85-1 [6]) was 93.7%. The normalised viability (DU-4475 [7]) was 82.2%, the normalised viability (HCC1143 [8]) was 50.9% and the normalised viability (HCC1599 [9]) was 90.2%. For the same compound, the normalised viability (HCC1937 [10]) was 45.8%, the normalised viability (HDQ-P1 [11]) was 99.4% and the normalised viability (Hs578T [12]) was 81.8%. It also gave a normalised viability (MDA-MB-231 [13]) of 78.9%, a normalised viability (MDA-MB-436 [14]) of 87.9% and a normalised viability (MDA-MB-453 [15]) of 103%. It also gave a normalised viability (MDA-MB-468 [16]) of 46.8%, a normalised viability (MFM-223 [17]) of 93.8% and a normalised viability (SK-BR-3 [18]) of 49.7%. For the same compound, the normalised viability (BT-474 [19]; 5 nM) was 101%, the normalised viability (BT-474 [19]; 500 nM) was 69.9% and the normalised viability (BT-474 [19]; 5000 nM) was 60.3%. It also gave a normalised viability (BT-549 [20]; 5 nM) of 82.1%, a normalised viability (BT-549 [20]; 500 nM) of 39.3% and a normalised viability (BT-549 [20]; 5000 nM) of 20.7%. The normalised viability (CAL-120 [21]; 5 nM) was 81.5%, the normalised viability (CAL-120 [21]; 500 nM) was 22.6% and the normalised viability (CAL-120 [21]; 5000 nM) was 10.3%. It also gave a normalised viability (CAL-148 [22]; 1.5 nM) of 102%, a normalised viability (CAL-148 [22]; 15 nM) of 47.9% and a normalised viability (CAL-148 [22]; 50 nM) of 30.9%. The normalised viability (CAL-51 [23]; 1.5 nM) was 103%, the normalised viability (CAL-51 [23]; 15 nM) was 57% and the normalised viability (CAL-51 [23]; 50 nM) was 31.1%. It also gave a normalised viability (CAL-85-1 [24]; 1.5 nM) of 98%, a normalised viability (CAL-85-1 [24]; 15 nM) of 87.3% and a normalised viability (CAL-85-1 [24]; 50 nM) of 74.8%. It also gave a normalised viability (DU-4475 [25]; 1.5 nM) of 117%, a normalised viability (DU-4475 [25]; 15 nM) of 60.2% and a normalised viability (DU-4475 [25]; 50 nM) of 44.7%. For the same compound, the normalised viability (HCC1143 [26]; 5 nM) was 78.3%, the normalised viability (HCC1143 [26]; 500 nM) was 33.5% and the normalised viability (HCC1143 [26]; 5000 nM) was 22.9%. It also gave a normalised viability (HCC1599 [27]; 5 nM) of 108%, a normalised viability (HCC1599 [27]; 500 nM) of 60.1% and a normalised viability (HCC1599 [27]; 5000 nM) of 29.5%. The normalised viability (HCC1937 [28]; 5 nM) was 92.6%, the normalised viability (HCC1937 [28]; 500 nM) was 29.6% and the normalised viability (HCC1937 [28]; 5000 nM) was 25.5%. It also gave a normalised viability (HDQ-P1 [29]; 1.5 nM) of 90.7%, a normalised viability (HDQ-P1 [29]; 15 nM) of 83.2% and a normalised viability (HDQ-P1 [29]; 50 nM) of 65.9%. The normalised viability (Hs578T [30]; 5 nM) was 112%, the normalised viability (Hs578T [30]; 500 nM) was 59.6% and the normalised viability (Hs578T [30]; 5000 nM) was 11.5%. For the same compound, the normalised viability (MDA-MB-231 [31]; 5 nM) was 98%, the normalised viability (MDA-MB-231 [31]; 500 nM) was 51.8% and the normalised viability (MDA-MB-231 [31]; 5000 nM) was 22.6%. The normalised viability (MDA-MB-436 [32]; 5 nM) was 97%, the normalised viability (MDA-MB-436 [32]; 500 nM) was 31.2% and the normalised viability (MDA-MB-436 [32]; 5000 nM) was 10.3%. For the same compound, the normalised viability (MDA-MB-453 [33]; 1.5 nM) was 114%, the normalised viability (MDA-MB-453 [33]; 15 nM) was 105% and the normalised viability (MDA-MB-453 [33]; 50 nM) was 77.4%. The normalised viability (MDA-MB-468 [34]; 5 nM) was 93%, the normalised viability (MDA-MB-468 [34]; 500 nM) was 12.1% and the normalised viability (MDA-MB-468 [34]; 5000 nM) was 6.62%. For the same compound, the normalised viability (MFM-223 [35]; 5 nM) was 108%, the normalised viability (MFM-223 [35]; 500 nM) was 79.8% and the normalised viability (MFM-223 [35]; 5000 nM) was 32.3%. It also gave a normalised viability (SK-BR-3 [36]; 5 nM) of 100%, a normalised viability (SK-BR-3 [36]; 500 nM) of 20.6% and a normalised viability (SK-BR-3 [36]; 5000 nM) of 8%.
With `O=P(O)(NCCCl)NCCCl` [Ifosfamide mustard] (1 nM) the normalised viability (BT-474 [37]) was 113%, the normalised viability (BT-549 [38]) was 102% and the normalised viability (CAL-120 [39]) was 82.2%. It also gave a normalised viability (CAL-148 [40]) of 111%, a normalised viability (CAL-51 [41]) of 108% and a normalised viability (CAL-85-1 [42]) of 85.5%. It also gave a normalised viability (DU-4475 [43]) of 106%, a normalised viability (HCC1143 [44]) of 97.4% and a normalised viability (HCC1599 [45]) of 109%. It also gave a normalised viability (HCC1937 [46]) of 92.3%, a normalised viability (HDQ-P1 [47]) of 88.6% and a normalised viability (Hs578T [48]) of 116%. The normalised viability (MDA-MB-231 [49]) was 101%, the normalised viability (MDA-MB-436 [50]) was 110% and the normalised viability (MDA-MB-453 [51]) was 109%. The normalised viability (MDA-MB-468 [52]) was 101%, the normalised viability (MFM-223 [53]) was 94.9% and the normalised viability (SK-BR-3 [54]) was 91.8%.
